Laboratory results: patent US9364545B2, “Thermosensitive injectable hydrogel for drug delivery” (Taipei Medical University, priority 2014, dated 2016)

What was measured:
[1] = Body weight and death as indication of systemic toxicity; type: in vivo, Balb/c male mice; details: after intratumoral injection, during the experiment
Protocol: (§1) The suspension of […] (1.0×10^6 cells/100 μl) was injected subcutaneously in the right flank of Balb/c male mice using 26 G needles. After 7 days tumor size reached 100-300 mm^3. The […] were randomly divided into three groups (n=3) and received following treatments. Group 1 mice were treated with an intratumoral injection of sterile PBS as control group; Group 2, mice received an intratumoral injection of Dox-HA hydrogel; Group 3, mice received an intratumoral injection of free Dox solution (4 mg/kg in 0.1 mL). The mice were weighed and tumor size was measured using a capliper for 10 days post intratumoral injection. The tumor volume (V) was calculated with the following formula V=[length×(width)^2]/2
We also monitored change in body weight during the experiment as an indication of systemic toxicity.

[2] = tested on: MCF-7 human breast cancer cells; test: Cell viability, MTT assay; type: cell-based; details: MCF7 cells, 24 h incubation
Protocol: (§2) C26 colon carcinoma cells and HT29 human colon cancer cells were cultured with RPMI-1640 with 10% fetal bovine serum and 10% penicillinstreptomycin. MCF-7 human breast cancer cells MEM were cultured with Eagle's MEM with 10% fetal bovine serum and 10% penicillinstreptomycin. Cells were seeded at a density of 5×10^4 cells per well in 24-well plates. After 24 hours of incubation at 37° C. with 5% CO2, the medium was replaced with new medium containing Dox formulation. After 24 hours incubation, cell survival was then measured using tetrazolium salt MTT assay. One hundred microliters of MTT (6 mg/mL) was added to each well for 4 hours. The medium was removed after […] incubation and then 200 μl DMSO was added to dissolve any purple formazan crystal formed. Remove the solvent was removed and dried in an oven at 50° C. for 2 hours. Cell viability was measured by ELISA reader and absorbance set at 520 nm.

[3] = tested on: C26 colon carcinoma cells; test: Cell viability, MTT assay; type: cell-based; details: 24 h incubation
Protocol: as §2

[4] = tested on: HT29 human colon cancer cells; test: Cell viability, MTT assay; type: cell-based; details: 24 h incubation
Protocol: as §2

[5] = tested on: C26 tumor; test: Tumor inhibition study, intratumoral injection; type: in vivo, Balb/c male mice
Protocol: as §1
On day 10, the mice were sacrificed and the tumor masses harvested, weighted, and photographed. Tumor inhibition rate was calculated using the equation. Tumor inhibition rate (%)=(Wc−Wt)/Wc where Wc is the weight of the tumor in the control group and Wt is the weight of the tumor in the test formulation group (L. Chen, X. Sha, X. Jiang, Y. Chen, Q. Ren, X. Fang, Pluronic P105/F127 mixed micelles for the delivery of docetaxel against Taxol-resistant non-small cell lung cancer: optimization and in vitro, in vivo evaluation, International journal of nanomedicine, 8 (2013) 73-84).
The in vivo antitumor efficacy of DHMF-15 hydrogel formulation was evaluated in the C26 tumor-bearing mice model. Mice were randomized into […] when the tumor size reached 100 mm^3. Three groups of mice received intratumoral injection of PBS, DHMF-15 hydrogel, free Dox solution, DMF-15 hydrogel, and DF-15 hydrogel respectively. […] PBS treatments had no substantial effect on C26 tumor growth, and the tumor volumes increased rapidly. After administration for 10 days, the average tumor volume in the PBS treated mice had reached over 1000 mm^3. […] Ranked from high to low inhibition efficacy, the formulations are ordered as follows: DHMF-15, free Dox solution, DMF-15, DF-15, PBS.

COc1cccc2c1C(=O)c1c(O)c3c(c(O)c1C2=O)C[C@@](O)(C(=O)CO)C[C@@H]3O[C@H]1C[C@H](N)[C@H](O)[C@H](C)O1.Cl [free Dox solution, Doxorubicin Hydrochloride]
Toxicity-induced death and body weight loss [1]: neither toxicity-induced death nor serious body weight loss | Cytotoxicity (cell viability) [2]: potent cytotoxicity | Cytotoxicity (cell viability) [3]: potent cytotoxicity | Cytotoxicity (cell viability) [4]: potent cytotoxicity | Tumor size as % of that in the PBS control group ([5]; after 10 days, intratumoral injection): 42.45% | Tumor weight compared to the control group ([5]; day 10): significantly reduced | Tumor inhibition rate ([5]; excised tumor weight on day 10, (Wc−Wt)/Wc): 80.65%
